For this data set, the system named is glucocorticoid receptor (GR) binding to DNA. As to the kind of experiment: Gel mobility shift assay of GR binding to GRE DNA, A549 nuclear extracts. Type of data set: cell-based, human. As to conditions: 300 nM ISIS 15534 compared with 1 μM dexamethasone. As to the method: Nuclear extracts and gel mobility shift assays were conducted as previously described (Li et al. 1991) with slight modifications (Zuo et al. 1998). Briefly, A549 cells were cultured in 60 mm dishes and treated with ISIS 15521 or ISIS 15534 antisense oligonucleotides (Zuo et al. 1998) three dishes per group. Six hours after treatment, the cells were collected, washed with ice-cold PBS, and incubated in buffer A (10 mM HEPES, pH 7.9, 10 mM KCl, 0.1 mM EDTA, 0.1 mM EGTA, 1 mM DTT, 0.5 mM PMSF) at 4° C. for 15 minutes. The cells were then lysed by adding 25 μl 10% NP-40 and vigorous vortexing for 10 seconds. Nuclei were precipitated by centrifugation, resuspended in ice-cold buffer B (20 mM HEPES, pH 7.9, 0.4 M NaCl, 1 mM EDTA, 1 mM EGTA, 1 mM DTT, 1 mM PMSF), incubated at 4° C. for 60 minutes with gentle shaking, and then subjected to centrifugation at 4° C. for 5 minutes. The supernatant was collected, aliquoted, and stored at -80° C. […]
Referring to FIG. 3A, the inhibition of PP5 expression enhances glucocorticoid receptor binding to DNA. […] The relative light units of the cell extract were calculated as an average of three independent experiments, performed in triplicate, and presented as relative luciferase activity with error bars indicating SD. […]

With “ISIS 15534: chimeric PP5 antisense oligonucleotide, P=O wings, P=S deoxy gap; GGGCCCTATTGCTTGAGTGG, SEQ ID NO: 12 (sugars by position and backbone not given here; chimeric, phosphodiester wings, phosphorothioate deoxy gap)”, the GR/GRE gel shift result was “more pronounced shift”.

The values are drawn from patent US6235891A, “Glucocorticoid receptor agonist and decreased PP5” (South Alabama Medical Science Foundation, priority 1999, dated 2001).
